In patent US20150168420A1, “BIOORTHOGONAL CHEMICAL INDUCERS OF REVERSIBLE DIMERIZATION FOR CONTROL OF PROTEIN FUNCTION IN CELLS” (MAX-PLANCK-GESELLSCHAFT ZUR FÖRDERUNG DER WISSENSCHAFTEN …, priority 2012, published 2015):

Assays:
[1] = target: ECFP-eDHFR and YFP-FKBP(F36V) (UniProt P0ABQ4+P62942, F37V); experiment: FRET titration of ligand-induced heterodimerization of recombinant fusion proteins; assay type: binding; conditions: 400 nM ECFP-eDHFR and 400 nM YFP-FKBP(F36V)
eDHFR and FKBP(F36V) = eDHFR and FKBP(F36V) (UniProt P0ABQ4+P62942, F37V); experiment: Size exclusion chromatography and SDS-PAGE of eDHFR / FKBP(F36V) mixture with ligand; assay type: binding
Description: FIG. 1: Efficiency and specificity of SLF′-TMP (compound 13) binding (comp. example 2). • In the absence of SLF′-TMP (solid line) or in the presence of 100 μM SLF′-TMP (compound 13, dashed line). • a) size exclusion chromatography profile • b) SDS-PAGE analysis
A size exclusion chromatography profile of a mixture of 100 μM eDHFR and FKBP(F36V) was performed in the absence or the presence of 100 μM SLF′-TMP (compound 13) (see FIG. 1a).
A SDS-PAGE analysis of fractions from the gel filtration was carried out in the absence and the presence of the ligand SLF′-TMP (compound 13), respectively (see FIG. 1b).

CCC(C(=O)N1CCCCC1C(=O)O[C@H](CCc1ccc(OC)c(OC)c1)c1cccc(OCC(=O)NCCCOCCOCCOCCCNC(=O)COc2c(OC)cc(Cc3cnc(N)nc3N)cc2OC)c1)c1cc(OC)c(OC)c(OC)c1 (stereo partly shown) [SLF′-TMP]
FRET signal (ratio of fluorescence 523 nm / 475 nm) upon titration [1]: dose-dependent increase
Kd ([1]; quadratic fit, read-out: dissociation constant Kd from FRET titration): 120 ± 40 nM
binding to FKBP(F36V) and eDHFR by size exclusion chromatography (eDHFR and FKBP(F36V); 100 μM eDHFR and FKBP(F36V), 100 μM ligand): binds effectively
binding to FKBP(F36V) and eDHFR by SDS-PAGE of gel filtration fractions (eDHFR and FKBP(F36V); presence versus absence of ligand): binds to FKBP(F36V) and eDHFR
